The source of these data is patent EP3246325A1, “2-ACYLAMINOTHIAZOLE COMPOUND CRYSTALS” (priority 2011, dated 2013).

The test system of one data set is Human c-mpl-Ba/F3 cells. Kind of data set: Cell proliferation test for human c-mpl-Ba/F3 cells (WST-1/1-methoxy PMS absorbance). The conditions noted are these: based on the maximum cell proliferation activity of rhTPO being 100%. The protocol:
Test Example 1 Cell Proliferation Test for Human c-mpl-Ba/F3 Cells
Human c-mpl-Ba/F3 cells at a concentration of 2 x 10^5 cells/mL were cultured at 37 degree C on a 96 well microplate using RPMI 1640 culture medium (100 microliter/ well) containing 10% fetal calf serum to which various concentrations of the test compound was added. After 24 hours from the start of culturing, 10 microliter/well of WST-1/1-methoxy PMS (cell measuring kit, Dojin) was added. Immediately after the addition and two hours later, the A450/A650 absorbance was measured using a microplate reader (Model 3350, Bio-Rad), and the increase in absorbance after 2 hours was interpreted to represent the proliferation activity of each test compound.
On the technique in general: Formazan colour is commonly taken as a measure of viable cells.

Data set [1] relates to Ba/F3 cells where c-mpl was not introduced. Kind of data set: Cell proliferation test with Ba/F3 cells where c-mpl was not introduced (counter-test). The data set is classed as cell-based.
For another data set, the system named is human c-mpl-Ba/F3 cell. Kind of data set: Mouse oral administration test: blood plasma after oral dosing added to the human c-mpl-Ba/F3 cell proliferation test system. Type of data set: in vivo, male ICR mice. The conditions noted are these: 3 mg/kg orally; for Cell proliferation activity (%): male ICR mice, blood sampled 2 hours after administration, maximum activity of each test compound = 100%; for oral absorption: verbal conclusion from Table 1, mice. As to the method:
Test Example 2: Mouse Oral Administration Test 3 mg/kg of the test compound suspended in an aqueous solution of 0.5% methylcellulose was orally administered to male ICR mice. […] Table 1 Human c-mpl-Ba/F3 cell proliferation activity of […] after orally administering test compounds

Counter-ions that a name gives are not always drawn. Some results are limits rather than exact numbers.

Regarding `O=C(Nc1nc(-c2cc(Cl)cs2)c(N2CCN(C3CCCCC3)CC2)s1)c1cnc(N2CCC(C(=O)O)CC2)c(Cl)c1` [listing 1 of 2 here], the Emax in the data set with Human c-mpl-Ba/F3 cells turned out to be 102%. Also, the cell proliferation effect result in data set [1] is “a cell proliferation effect was not observed”.

As for `O=C(Nc1nc(-c2cc(Cl)cs2)c(N2CCN(C3CCCCC3)CC2)s1)c1cnc(N2CCC(C(=O)O)CC2)c(Cl)c1.O=C(O)/C=C\C(=O)O` [1-(3-chloro-5-{ [4-(4-chlorothiophen-2-yl)-5-(4-cyclohexylpiperazin-1-yl)thiazol-2-yl]carbamoyl}pyridin-2-yl) piperidine-4-carboxylic acid maleic acid salt], the “Cell proliferation activity (%)” value in the data set with human c-mpl-Ba/F3 cell (0.3% blood plasma concentration) is given as under 10%. The oral absorption entry in the data set on human c-mpl-Ba/F3 cell (listed as compound X maleic acid B type crystals, 3 mg/kg) is given as “inferior oral absorption”.

On to `O=C(Nc1nc(-c2cc(Cl)cs2)c(N2CCN(C3CCCCC3)CC2)s1)c1cnc(N2CCC(C(=O)O)CC2)c(Cl)c1` [listing 2 of 2 here], for which the oral absorption result with human c-mpl-Ba/F3 cell is listed as “excellent oral absorption”.

Consider `O=C(Nc1nc(-c2cc(Cl)cs2)c(N2CCN(C3CCCCC3)CC2)s1)c1cnc(N2CCC(C(=O)O)CC2)c(Cl)c1.O=C(O)/C=C\C(=O)O` [1-(3-chloro-5-{[4-(4-chlorothiophen-2-yl)-5-(4-cyclohexylpiperazin-1-yl)thiazol-2-yl]carbamoyl}pyridin-2-yl) piperidine-4-carboxylic acid maleic acid salt], for which the oral absorption entry in the data set on human c-mpl-Ba/F3 cell (listed as compound X maleic acid salt C type crystal, 3 mg/kg) is “excellent oral absorption”.

For `O=C(Nc1nc(-c2cc(Cl)cs2)c(N2CCN(C3CCCCC3)CC2)s1)c1cnc(N2CCC(C(=O)O)CC2)c(Cl)c1` [Compound X hydrochloride, reference compound], the “Cell proliferation activity (%)” value with human c-mpl-Ba/F3 cell (10% blood plasma concentration) is reported as 34%.
